Test results taken from patent US10611797B2, “Peptide having anticancer activity, and pharmaceutical composition and dietary supplement composition for preventing and treating cancer, both of which contain same as active ingredient” (IUCF-HYU (INDUSTRY-UNIVERSITY COOPERATION FOUNDATION …, priority 2015, dated 2020).
No end group written: not given here. *: point of attachment. Biotin = O=C1N[C@H]2[C@H](CS[C@H]2CCCCC(=O)*)N1

What was measured:
[1] = system: human blood cancer cell lines (K562, HEL, HL60); assay: MTT cell viability, human blood cancer cell lines; format: cell-based; details: 0-10 μM, 24-96 h
Description: (§1) Liver cancer cell lines (HepG2, Hep3B) were inoculated into 96-well plates at a density of 3000 cells/well, and then 50 μl of culture solution was added thereto. Cells were cultured at 37° C. and 5% CO2 for 1 h. […] Cells were cultured at 37° C. and 5% CO2 for 24, 48, 72, and 96 h. After completion of the culture, the remaining culture solution was removed from the well plates, the cultures were diluted with MTT solution (3-(4,5-dimethylthiazol-2-yl)-2,5-diphenyltetrazole bromide) to a final density of 500 μg/ml, and cells were cultured at 37° C. and 5% CO2 for 3 h. The remaining MTT solution was removed and 150 μl of dimethyl sulfoxide (DMSO) was added. The reaction was carried out at room temperature for 20 min. After completion of the reaction, absorbance was measured using a microplate reader.

[2] = system: BEAS2B and MCF10A normal epithelial cell lines
Description: as §1

CP2c [3] = assay: Luciferase reporter assay of CP2c transcriptional activity in 293T cells; format: cell-based, human; details: 2 μM, 48 h, wild-type CP2c binding sites, compared with FQI1
Description: 293T cells were inoculated into a 12-well plate at a density of 1×10^5 cells/well. 12 h after inoculation, cells were transfected with combinations of a reporter vector (the wild-type reporter links the enhancer sequence of the GATA-1 gene including twice repeated CP2c-binding sites to the upstream of the luciferase gene and Mut 1/3, Mut 2/4, and Mut 1-4 reporters cause mutations of the CP2c binding sites present in the enhancer sequence) and various Flag-CP2c, HA-CP2b, and HA-PIAS1 expression vectors by using the effectene method. After 1-h culture, cells were treated with FQI1, Peptide 5C, and Peptide 5-2C at concentrations of 2 μM, followed by 48-h culture. Cells were harvested and lysed in 250 μl of passive cell lysis buffer (Promega) to obtain an extract. 20 μl of the cell extract and a dual-luciferase assay kit (Promega) were used to measure the activity of the labeled luciferase gene in GLOMAX (Promega) (the expression of each expression vector was confirmed by Western blotting).

[4] = system: cancer cell lines (HepG2, Hep3B, 293T, MCF-7, MDA-MB-231, K562, HEL, HL60, U251, U373MG, U87MG); assay: Microscopic observation of growth inhibition and apoptosis, cancer cell lines; format: cell-based, human; details: 2 μM, 48 h
Description: (§2) Liver cancer cell lines (HepG2, Hep3B), a human embryonic kidney cell line (293T), breast cancer cell lines (MCF-7, MDA-MB-231), blood tumor cell lines (K562, HEL, HL60), glioblastoma cell lines (U251, U373MG, U87MG), a mammary epithelial cell line (MCF10A), a lung epithelial cell line (BEAS2B), human mesenchymal stem cells (hMSCs), and mouse primary T cells (resting and activated T cells) were inoculated into 96-well plates at a density of 3,000 cells/well, supplemented with 50 μl of culture solution, and cultured at 37° C. and 5% CO2 for 1 h. […] After completion of the culture, cells were observed under an inverted phase contrast microscope and their morphological changes were imaged.

[5] = system: human embryonic stem cells (hESCs, H9)
From the text: MEF cells labeled with rhodamine were often used to distinguish them from hESC-derived cells.

[6] = system: breast cancer cell lines (MCF7, MDA-MB-231); assay: MTT cell viability, breast cancer cell lines; format: cell-based, human; details: 0-10 μM, 24-96 h
Description: as §1

[7] = system: glioblastoma cell lines (U251, U87MG, U343); assay: MTT cell viability, glioblastoma cell lines; format: cell-based, human; details: 0-10 μM, 24-96 h
Description: as §1

[8] = system: human embryonic kidney cancer cell line (293T); assay: MTT cell viability, 293T; format: cell-based; details: 0-10 μM, 24-96 h
Description: as §1

[9] = system: liver cancer cell lines (HepG2, Hep3B); assay: MTT cell viability, liver cancer cell lines; format: cell-based, human; details: 0-10 μM, 24-96 h
Description: as §1

[10] = system: normal cell lines (MCF10A, BEAS2B, hMSCs, mouse primary T cells)
Description: as §2

CP2c [11] = target: T1, CP2c (Mus musculus, UniProt Q9ERA0); details: Kim et al., Analytical Biochemistry 2013; cited from earlier work
T1 construct: 5 μg of the nuclear extract and an [α-32p] dCTP-labeled DNA probe; endogenous in cells; host or cells: MEL (murine erythroid leukemia) cells, HMBA-differentiated, nuclear extract
T1 sequence (Q9ERA0 1-502): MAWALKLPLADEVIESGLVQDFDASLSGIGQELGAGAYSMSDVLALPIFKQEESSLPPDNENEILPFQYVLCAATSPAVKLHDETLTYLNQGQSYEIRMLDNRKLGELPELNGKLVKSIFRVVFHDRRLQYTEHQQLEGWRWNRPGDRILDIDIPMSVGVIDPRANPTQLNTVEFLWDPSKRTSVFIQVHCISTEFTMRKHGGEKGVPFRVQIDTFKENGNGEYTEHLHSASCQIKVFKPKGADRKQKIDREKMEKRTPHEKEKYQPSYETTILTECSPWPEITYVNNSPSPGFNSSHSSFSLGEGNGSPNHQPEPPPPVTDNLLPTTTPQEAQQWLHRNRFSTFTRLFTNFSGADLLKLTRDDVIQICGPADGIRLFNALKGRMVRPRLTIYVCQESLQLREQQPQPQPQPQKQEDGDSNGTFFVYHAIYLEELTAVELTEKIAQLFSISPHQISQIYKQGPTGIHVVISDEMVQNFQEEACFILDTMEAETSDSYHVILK

CP2c [12] = target: T1, CP2c; assay: DNA immunoprecipitation (DIP) assay of CP2c-DNA binding; details: 0.2, 0.5, and 1 μg peptide; MEL nuclear extract; α-globin promoter probe
Description: To analyze whether the five peptides identified in Example 1.1 bind to CP2c in cells to affect the ability of CP2c to bind to DNA, DNA immunoprecipitation (DIP) assay was performed as disclosed in another preceding research conducted by the present inventors (Kim et al., A DNA immunoprecipitation assay used in quantitative detection of in vitro DNA-protein complex binding, Analytical Biochemistry. 2013; 441: 147-151).
In summary, the differentiation of a murine erythroid leukemia (MEL) cell line was induced by treatment with 5 mM hexamethylene bisacetamide (HMBA) and, on day 2 after differentiation, a cellular nuclear extract was separated. […]
Subsequently, 5 μg of the nuclear extract and an [α-32p] dCTP-labeled DNA probe (a sequence corresponding to the common CP2c binding site present in mouse α-globin promoter and between −156 and −124 in the start codon of the α-globin gene, see the paper of Kim et al. for details of the sequence) were allowed to react with a binding buffer (4% glycerol, 10 mM Tris-HCl, 1 mM DTT, 1 mM EDTA, and 0.1% NP-40) for 15 min, and gradually increasing amounts (0.2, 0.5, and 1 μg) of the identified CP2c binding peptides (Peptide 5, Peptide 8, Peptide 13, Peptide 21, and Peptide 31) were added thereto. […] The CP2c protein was removed from the DNA probe and the remaining amount of the DNA probe was measured using a scintillation counter. […]

[13] = system: MDA-MB-231 cell line and MCF7 cell line; assay: MTT assay of Peptide 5-2CB; format: cell-based, human
From the text: To support this assumption, a CP2c protein region with which Peptide 5-2C interacts and amino acids in the region directly binding to Peptide 5-2C need to be identified. Thus, an attempt was made to obtain mutant CP2c proteins in which polar amino acids present in the CP2c region binding with Peptide 5 shown in FIG. 1 were substituted with Ala and analyze the binding of the mutant CP2c proteins with Peptide 5-2C by enzyme-linked immunosorbent assay (ELISA). To facilitate this analysis, Peptide 5-2CB was synthesized in which biotin tag is bonded to the C-terminal Pro residue of Peptide 5-2C. To confirm whether Peptide 5-2CB induces cancer cell-specific growth interruption and apoptosis, like Peptide 5-2C, MTT assay was conducted on two different batches of Peptide 5-2CB in MDA-MB-231 cell line and MCF7 cell line by the same method as in Example 5.1. IC50 values were also calculated from the results of MTT assay. To obtain 19 mutant CP2c proteins in which polar amino acids present in the CP2c region binding with Peptide 5-2C were substituted with Ala, oligonucleotides having sequences encoding the corresponding mutant amino acids were synthesized and site-directed mutagenesis was carried out. The base sequences encoding the mutant CP2c genes were cloned into the pGEX4 vector and mutant GST-fusion CP2c proteins were purified using beads bound with antibody against GST-tag. […]

GST-CP2c wild type = target: T2, GST-CP2c wild type (UniProt Q9ERA0 Q9ERA0:1-502); assay: pulldown; DNA-IP, values only in figure; details: tags: GST fusion, E. coli; label: 32P
T2 sequence: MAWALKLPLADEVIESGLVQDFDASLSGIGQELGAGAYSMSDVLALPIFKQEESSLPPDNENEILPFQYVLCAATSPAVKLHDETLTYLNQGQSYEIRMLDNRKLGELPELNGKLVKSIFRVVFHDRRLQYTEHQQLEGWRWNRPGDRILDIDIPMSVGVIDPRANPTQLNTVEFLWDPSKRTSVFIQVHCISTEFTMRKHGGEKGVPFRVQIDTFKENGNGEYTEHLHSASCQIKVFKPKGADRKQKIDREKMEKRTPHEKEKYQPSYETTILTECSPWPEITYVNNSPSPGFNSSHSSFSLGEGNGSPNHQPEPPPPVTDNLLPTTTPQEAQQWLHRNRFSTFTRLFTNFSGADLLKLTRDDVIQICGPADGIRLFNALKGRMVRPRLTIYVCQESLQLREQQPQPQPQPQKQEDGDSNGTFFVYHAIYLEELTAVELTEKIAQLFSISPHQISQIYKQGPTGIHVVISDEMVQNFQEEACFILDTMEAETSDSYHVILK

Question: What does the source list for “Ac-HERRESNYPQRPCRGCRGDKGPDC-Amide (Ac-HERRESNYPQRPCRGCRGDKGPDC-NH2; ends and bridges not checked) [Peptide 5C]”?
Answer: relative viability (MTT), K562, HEL, HL60, compared with FQI1 [1]: slightly effectively inhibited the growth of the glioblastoma cell lines and induced apoptosis compared to FQI1; growth inhibition and apoptosis induction of normal control cell lines (IC50 calculation) [2]: inhibited cell growth and induced apoptosis, similarly to the treatment with Peptide 5C; CP2c-mediated transcriptional activity (luciferase reporter) (CP2c [3]): effectively inhibit CP2c-mediated transcriptional activity compared to FQI1; growth inhibition and apoptosis induction of cancer cell lines (microscopy) [4]: specifically inhibited the growth of the cancer cell lines and induced apoptosis; cytotoxicity (MTT) in hESCs [5]: slight cytotoxicity at high concentrations; relative viability (MTT), breast cancer cell lines, compared with FQI1 [6]: more effectively inhibited the growth of the breast cancer cell lines and induced apoptosis than FQI1; relative viability (MTT), glioblastoma cell lines, compared with FQI1 [7]: more effectively inhibited the growth of the glioblastoma cell lines and induced apoptosis than FQI1; relative viability (MTT), 293T, compared with FQI1 [8]: inhibited the growth of the glioblastoma cell lines and induced apoptosis similarly to FQI1; relative viability (MTT), liver cancer cell lines, compared with FQI1 [9]: more effectively inhibited the growth of the liver cancer cell lines and induced apoptosis than FQI1; effect on normal cell lines (microscopy) [10]: without substantially affecting the normal cell lines

Question: What does the source list for HERRESNYPQRP [Peptide 5]?
Answer: inhibition of CP2c-DNA binding (DNA immunoprecipitation) (CP2c [11]): inhibits CP2c-DNA binding in a concentration-dependent manner; inhibition of CP2c-DNA binding (DIP assay) (CP2c [12]): specifically inhibited the CP2c-DNA binding in a concentration-dependent manner

Question: Which “IC50 compared with Peptide 5-2C” value ([13]; 48 h) does the source give for “Peptide 5-2CB: biotin-tagged Lys linked to the C-terminal Cys residue of Peptide 5-2C (NYPQRPCRGDKGPDCK(Biotin); not fully specified; cysteine pairing not given here)” here?
Answer: had IC50 values similar to Peptide 5-2C

Question: And the “cancer cell growth interruption and apoptosis (MTT)” value ([13]; two batches, increasing concentrations)?
Answer: induced cancer cell-specific cell growth interruption and apoptosis

B1: alpha-globin promoter CP2c site probe (dsDNA)
DNA 1: GATCCCAAGTTTTACTCGGTAGAGCAAGCACAAACCAGG
DNA 2: CCTGGTTTGTGCTTGCTCTACCGAGTAAAACTTGGGATC
Question: Does B1 bind (GST-CP2c wild type)?
Answer: binds
